Experimental data reported in ChEMBL document CHEMBL1201862, “PubChem BioAssay data set” (2004).
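Compound exposure: 48 hours, 5 concentrations, 96-well plates. The concentration for 50% growth inhibition is given as GI50.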 Activity calls are given as the source filed them. Rule as the data show it: active = GI50 up to about 1.1 µM and inactive = higher.

How the values were obtained:
Assay in all cases: DTP human tumour cell line panel, 48 h
HCC 2998 = test system: HCC 2998
SNB-19 = test system: SNB-19
A498 = test system: A498
NCI-H460 = test system: NCI-H460
TK-10 = test system: TK-10
NCI-H23 = test system: NCI-H23
NCI-H522 = test system: NCI-H522
LOX IMVI = test system: LOX IMVI
HL-60 = test system: HL-60
UACC-257 = test system: UACC-257
BT-549 = test system: BT-549
SK-MEL-5 = test system: SK-MEL-5
SF-268 = test system: SF-268
NCI/ADR-RES = test system: NCI/ADR-RES
SN12C = test system: SN12C
786-0 = test system: 786-0
EKVX = test system: EKVX
OVCAR-8 = test system: OVCAR-8
NCI-H226 = test system: NCI-H226
LXFL 529 = test system: LXFL 529

Row | SMILES | GI50 (HCC 2998) | GI50 (SNB-19) | GI50 (A498) | GI50 (NCI-H460) | GI50 (TK-10) | GI50 (NCI-H23) | GI50 (NCI-H522) | GI50 (LOX IMVI) | GI50 (HL-60) | GI50 (UACC-257) | GI50 (BT-549) | GI50 (SK-MEL-5) | GI50 (SF-268) | GI50 (NCI/ADR-RES) | GI50 (SN12C) | GI50 (786-0) | GI50 (EKVX) | GI50 (OVCAR-8) | GI50 (NCI-H226) | GI50 (LXFL 529)
1 | CC(C)(C)COS(=O)OCC(C)(C)C | > 100 µM (inactive) | > 100 µM (inactive) | > 100 µM (inactive) | > 100 µM (inactive) | > 100 µM (inactive) | > 100 µM (inactive) | > 100 µM (inactive) | > 100 µM (inactive) | > 100 µM (inactive) | > 100 µM (inactive) | > 100 µM (inactive) | > 100 µM (inactive) | > 100 µM (inactive) | > 100 µM (inactive) | > 100 µM (inactive) | > 100 µM (inactive) | > 100 µM (inactive) | > 100 µM (inactive) | > 100 µM (inactive) | –
2 | CC(=O)NC(CS)C(=O)O (stereo not given) | 20700 µM (inactive) | 16400 µM (inactive) | 3970 µM (inactive) | 18400 µM (inactive) | 10000 µM (inactive) | 20200 µM (inactive) | 6500 µM (inactive) | > 100 µM (inactive) | 34200 µM (inactive) | 21400 µM (inactive) | > 100 µM (inactive) | 14500 µM (inactive) | 20900 µM (inactive) | 22600 µM (inactive) | 26300 µM (inactive) | 21600 µM (inactive) | 4670 µM (inactive) | 24700 µM (inactive) | 10500 µM (inactive) | –
3 | O=C(C=P(c1ccccc1)(c1ccccc1)c1ccccc1)c1ccc(-c2cccs2)cc1 | 2.83 µM (inactive) | 2.96 µM (inactive) | 0.9 µM (active) | 3.97 µM (inactive) | 3.08 µM (inactive) | 8.91 µM (inactive) | 3.35 µM (inactive) | 4.57 µM (inactive) | 2.11 µM (inactive) | 1.8 µM (inactive) | 20.5 µM (inactive) | 2.17 µM (inactive) | 12.9 µM (inactive) | 4.48 µM (inactive) | 4.98 µM (inactive) | 4.75 µM (inactive) | 2.61 µM (inactive) | 4.86 µM (inactive) | 2.86 µM (inactive) | –
4 | Nc1nc(Cl)cc(NCC2(O)CC2)n1 | > 100 µM (inactive) | > 100 µM (inactive) | > 100 µM (inactive) | > 100 µM (inactive) | > 100 µM (inactive) | > 100 µM (inactive) | > 100 µM (inactive) | > 100 µM (inactive) | > 100 µM (inactive) | > 100 µM (inactive) | > 100 µM (inactive) | > 100 µM (inactive) | > 100 µM (inactive) | > 100 µM (inactive) | > 100 µM (inactive) | > 100 µM (inactive) | > 100 µM (inactive) | > 100 µM (inactive) | > 100 µM (inactive) | –
5 | OC(Cc1cc(CC(O)(C(F)(F)F)C(F)(F)F)nc(CC(O)(C(F)(F)F)C(F)(F)F)c1)(C(F)(F)F)C(F)(F)F | 1.83 µM (inactive) | 0.726 µM (active) | 1.32 µM (inactive) | 0.358 µM (active) | 3.99 µM (inactive) | 0.475 µM (active) | 3.06 µM (inactive) | 0.39 µM (active) | > 10 µM (inactive) | 2.05 µM (inactive) | 2.46 µM (inactive) | 1.51 µM (inactive) | 1.88 µM (inactive) | 1.66 µM (inactive) | 2.2 µM (inactive) | 1.35 µM (inactive) | 2.07 µM (inactive) | 1.33 µM (inactive) | 2.75 µM (inactive) | –
6 | CCOC(=O)C1=C(C)OC(=O)[C@@]2(OC)C=C(Cl)[C@@]12C | > 100 µM (inactive) | > 100 µM (inactive) | > 100 µM (inactive) | > 100 µM (inactive) | > 100 µM (inactive) | > 100 µM (inactive) | > 100 µM (inactive) | > 100 µM (inactive) | 33 µM (inactive) | > 100 µM (inactive) | > 100 µM (inactive) | > 100 µM (inactive) | > 100 µM (inactive) | > 100 µM (inactive) | > 100 µM (inactive) | > 100 µM (inactive) | > 100 µM (inactive) | > 100 µM (inactive) | > 100 µM (inactive) | –
7 | O=C(ON=c1c2ccccc2ccc2ccccc12)c1ccccc1 | 34 µM (inactive) | 26.1 µM (inactive) | 22.1 µM (inactive) | 43.2 µM (inactive) | > 75.9 µM (inactive) | 37.5 µM (inactive) | 20.7 µM (inactive) | 18.4 µM (inactive) | 6.28 µM (inactive) | 27.6 µM (inactive) | 31.6 µM (inactive) | 16.2 µM (inactive) | 35.6 µM (inactive) | 21.2 µM (inactive) | 27.2 µM (inactive) | 23.6 µM (inactive) | 35.7 µM (inactive) | 27.4 µM (inactive) | 22.3 µM (inactive) | –
8 | S=C(Nc1cccc(C2(N3CCCCC3)CCCCC2)c1)Nc1cccc(C2(N3CCCCC3)CCCCC2)c1 | 2.43 µM (inactive) | 36.6 µM (inactive) | 18.9 µM (inactive) | 18.7 µM (inactive) | 2.69 µM (inactive) | > 100 µM (inactive) | 20.4 µM (inactive) | 12.7 µM (inactive) | 14.9 µM (inactive) | 18 µM (inactive) | 41.1 µM (inactive) | 17.7 µM (inactive) | 36.8 µM (inactive) | > 100 µM (inactive) | 31.6 µM (inactive) | 15.2 µM (inactive) | 38 µM (inactive) | 24.3 µM (inactive) | 27.2 µM (inactive) | –
9 | OC(c1ccc(F)cc1)(c1ccc(F)cc1)C1CC1 | 20.5 µM (inactive) | 42.8 µM (inactive) | 29.2 µM (inactive) | 29 µM (inactive) | 30.7 µM (inactive) | 17.5 µM (inactive) | 21.2 µM (inactive) | 20 µM (inactive) | 21.3 µM (inactive) | 26 µM (inactive) | 19.2 µM (inactive) | 16.6 µM (inactive) | 32.2 µM (inactive) | 21.3 µM (inactive) | 20.9 µM (inactive) | 29.2 µM (inactive) | 29.2 µM (inactive) | 37.2 µM (inactive) | 26.6 µM (inactive) | –
10 | CN(C)c1ccc(/C=C(\NC(=O)c2ccccc2)C(=O)NC(CCC(=O)O)C(=O)O)cc1 (stereo not given) | > 100 µM (inactive) | > 100 µM (inactive) | > 100 µM (inactive) | > 100 µM (inactive) | > 100 µM (inactive) | > 100 µM (inactive) | > 100 µM (inactive) | > 100 µM (inactive) | > 100 µM (inactive) | > 100 µM (inactive) | > 100 µM (inactive) | > 100 µM (inactive) | > 100 µM (inactive) | > 100 µM (inactive) | > 100 µM (inactive) | > 100 µM (inactive) | > 100 µM (inactive) | > 100 µM (inactive) | > 100 µM (inactive) | –
11 | NCCCCNC1(c2cc3ccccc3s2)CCCCC1 | 1.65 µM (inactive) | 7.45 µM (inactive) | 2.16 µM (inactive) | 2.62 µM (inactive) | 3.87 µM (inactive) | 14.2 µM (inactive) | 2.42 µM (inactive) | 1.71 µM (inactive) | 3.09 µM (inactive) | 1.84 µM (inactive) | 11.8 µM (inactive) | 1.74 µM (inactive) | 6.24 µM (inactive) | 6.9 µM (inactive) | 12.2 µM (inactive) | 1.55 µM (inactive) | 14.6 µM (inactive) | 7.06 µM (inactive) | 16.5 µM (inactive) | –
12 | CCOc1cc2oc(C)cc(=O)c2c(OC)c1/C=N/c1ccc(Cn2c(C)nc3ccccc32)cc1 | > 100 µM (inactive) | > 100 µM (inactive) | > 100 µM (inactive) | > 100 µM (inactive) | > 100 µM (inactive) | > 100 µM (inactive) | > 100 µM (inactive) | > 100 µM (inactive) | > 100 µM (inactive) | > 100 µM (inactive) | > 100 µM (inactive) | > 100 µM (inactive) | > 100 µM (inactive) | > 100 µM (inactive) | > 100 µM (inactive) | > 100 µM (inactive) | > 100 µM (inactive) | > 100 µM (inactive) | > 100 µM (inactive) | –
13 | CCN(CC)CCOC(=O)Cc1cccc2c(=O)cc(-c3ccccc3)oc12 | 44.6 µM (inactive) | 56.1 µM (inactive) | 54.3 µM (inactive) | 10.2 µM (inactive) | 44.1 µM (inactive) | 45.8 µM (inactive) | 40.8 µM (inactive) | 29.6 µM (inactive) | 36.3 µM (inactive) | 54.3 µM (inactive) | 40.7 µM (inactive) | 32 µM (inactive) | 47.2 µM (inactive) | 50 µM (inactive) | 51.2 µM (inactive) | 55.1 µM (inactive) | 40.7 µM (inactive) | 51.4 µM (inactive) | 38.8 µM (inactive) | –
14 | Oc1cc(-c2ccccn2)nc2ccc(Cl)cc12 | 58.9 µM (inactive) | > 100 µM (inactive) | – | 38.1 µM (inactive) | 95.7 µM (inactive) | 29.5 µM (inactive) | 7.35 µM (inactive) | 30.8 µM (inactive) | 10.9 µM (inactive) | 31.7 µM (inactive) | – | – | – | – | 48 µM (inactive) | 72.9 µM (inactive) | 44 µM (inactive) | 44.2 µM (inactive) | – | 27.3 µM (inactive)
15 | COc1cc2c(cc1OCCCCCOc1cc3c(cc1OC)C(=O)N1CCC[C@H]1C(=O)N3)N=C[C@@H]1CCCN1C2=O | < 0.01 µM (active) | 0.192 µM (active) | 0.218 µM (active) | 0.116 µM (active) | 0.111 µM (active) | 0.21 µM (active) | 0.0112 µM (active) | 0.0274 µM (active) | 0.0817 µM (active) | 0.237 µM (active) | 0.075 µM (active) | 0.1 µM (active) | 0.0325 µM (active) | 7.8 µM (inactive) | 0.0711 µM (active) | 0.0762 µM (active) | 0.279 µM (active) | 0.225 µM (active) | 0.166 µM (active) | –
